PubChem BioAssay AID463237 (Sanford-Burnham Center for Chemical Genomics, 2010)
In brackets after ≈: the same amount, converted by molar mass.

Tested on: aqueous solubility, 1x PBS pH 7.4, UV, 18 h
Test: compound solubility at pH 7.4 – biophysical, 1x PBS, ADME assay (AID 463237)
Conditions: at 100 µM; hits give high values

solubility: 14 µg/mL (≈ 36.1 µM)
Structure (SMILES): CCCCn1c(NC(=O)c2ccc(F)cc2)c(C#N)c2nc3ccccc3nc21
